Laboratory results reported in ChEMBL document CHEMBL1201862, “PubChem BioAssay data set” (2004).
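A five-concentration, 48-hour dose response in 96-well plates underlies each endpoint, interpolated linearly between surrounding concentrations. GI50 = concentration required for 50% inhibition of growth.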 The source made the active and inactive calls. Rule as the data show it: active = GI50 up to about 1.1 µM and inactive = higher.

How the values were obtained:
Test in all cases: inhibition of tumour cell growth, NCI panel, 48 h
HL-60 = tested on: HL-60
A498 = tested on: A498
RPMI-8226 = tested on: RPMI-8226
EKVX = tested on: EKVX
K562 = tested on: K562
CCRF-CEM = tested on: CCRF-CEM
SK-MEL-28 = tested on: SK-MEL-28
LOX IMVI = tested on: LOX IMVI
SF-295 = tested on: SF-295
SNB-19 = tested on: SNB-19
MOLT-4 = tested on: MOLT-4
SK-MEL-2 = tested on: SK-MEL-2
NCI-H522 = tested on: NCI-H522
CAKI-1 = tested on: CAKI-1
OVCAR-3 = tested on: OVCAR-3
HCC 2998 = tested on: HCC 2998
UACC-257 = tested on: UACC-257
HCT-116 = tested on: HCT-116
HOP-62 = tested on: HOP-62

Measured: GI50

C#CCC1(C(=O)OCC)C(=O)c2ccccc2N(C)C1=O (stereo not given)
inactive: HL-60 60.1 µM | A498 67.5 µM | RPMI-8226 68.4 µM | EKVX > 100 µM | K562 91.8 µM | CCRF-CEM > 100 µM | SK-MEL-28 > 100 µM | LOX IMVI > 100 µM | SF-295 > 100 µM | SNB-19 45.4 µM | MOLT-4 45.2 µM | SK-MEL-2 > 100 µM | NCI-H522 12.1 µM | CAKI-1 35.6 µM | OVCAR-3 > 100 µM

Nc1nc(=O)[nH]c2c1cnn2C1CCCCO1 (stereo not given)
inactive: HL-60 38.4 µM | HCC 2998 > 100 µM | A498 > 100 µM | RPMI-8226 > 100 µM | EKVX > 100 µM | K562 > 100 µM | CCRF-CEM > 100 µM | SK-MEL-28 > 100 µM | LOX IMVI > 100 µM | SF-295 > 100 µM | UACC-257 > 100 µM | HCT-116 > 100 µM | SNB-19 > 100 µM | MOLT-4 > 100 µM | SK-MEL-2 > 100 µM | CAKI-1 > 100 µM

COc1cc(C(=O)Nc2cc(C(N)=O)cc(OC)c2OC)cc(NC(=O)/C=C/c2ccccc2)c1OC
inactive: HL-60 96.4 µM | RPMI-8226 44 µM | EKVX > 100 µM | K562 > 100 µM | CCRF-CEM 55.5 µM | SK-MEL-28 > 100 µM | SF-295 2.67 µM | UACC-257 > 100 µM | SNB-19 > 100 µM | MOLT-4 52.4 µM | NCI-H522 3.43 µM | OVCAR-3 3.68 µM

CC(C)=CC(=O)Cc1nc2ccccc2[nH]c1=O
inactive: HL-60 49.5 µM | HCC 2998 > 100 µM | A498 > 100 µM | RPMI-8226 > 100 µM | EKVX 47.3 µM | K562 > 100 µM | CCRF-CEM 64.7 µM | SK-MEL-28 > 100 µM | LOX IMVI > 100 µM | SF-295 64 µM | UACC-257 > 100 µM | HCT-116 > 100 µM | HOP-62 76 µM | SNB-19 > 100 µM | MOLT-4 > 100 µM | SK-MEL-2 > 100 µM | CAKI-1 76.7 µM | OVCAR-3 > 100 µM

CCOC(=O)C(=O)NCCCN1CCOCC1
inactive: HL-60 > 100 µM | HCC 2998 > 100 µM | A498 > 100 µM | EKVX > 100 µM | K562 > 100 µM | CCRF-CEM > 100 µM | SK-MEL-28 > 100 µM | LOX IMVI > 100 µM | SF-295 > 100 µM | UACC-257 > 100 µM | HCT-116 > 100 µM | HOP-62 > 100 µM | SNB-19 > 100 µM | MOLT-4 > 100 µM | SK-MEL-2 > 100 µM | NCI-H522 > 100 µM | CAKI-1 > 100 µM | OVCAR-3 > 100 µM

C=C=CC(NC(=O)c1ccccc1)(C(=O)O)C(F)(F)F (stereo not given)
inactive: HL-60 > 100 µM | HCC 2998 > 100 µM | A498 > 100 µM | RPMI-8226 > 100 µM | EKVX > 100 µM | K562 > 100 µM | CCRF-CEM > 100 µM | SK-MEL-28 > 100 µM | LOX IMVI > 100 µM | SF-295 > 100 µM | UACC-257 > 100 µM | HCT-116 > 100 µM | SNB-19 > 100 µM | MOLT-4 > 100 µM | SK-MEL-2 > 100 µM | CAKI-1 > 10 µM

CC1=[N+]([O-])C(C)(C)N(N=O)C1(C)C
inactive: HL-60 > 10 µM | HCC 2998 > 10 µM | RPMI-8226 > 10 µM | EKVX > 10 µM | K562 > 10 µM | CCRF-CEM > 10 µM | SF-295 > 10 µM | UACC-257 > 10 µM | HCT-116 > 10 µM | HOP-62 > 10 µM | SNB-19 > 10 µM | MOLT-4 > 10 µM | SK-MEL-2 > 10 µM | NCI-H522 > 10 µM | CAKI-1 > 10 µM | OVCAR-3 > 10 µM

C=CCc1cc(OC)c2c(c1)C(OC(C)=O)CC(c1ccc(OC)c(OC)c1)O2 (stereo not given)
inactive: HL-60 > 100 µM | HCC 2998 > 100 µM | EKVX > 100 µM | K562 > 100 µM | CCRF-CEM > 100 µM | SK-MEL-28 > 100 µM | SF-295 67.3 µM | UACC-257 > 100 µM | HCT-116 > 100 µM | HOP-62 45.4 µM | SNB-19 49.4 µM | MOLT-4 > 100 µM | NCI-H522 > 100 µM | CAKI-1 > 100 µM | OVCAR-3 > 100 µM

CCC(C)CN1C(=O)NC(Cc2ccccc2)C1=O (stereo not given)
inactive: HL-60 > 10 µM | HCC 2998 > 100 µM | EKVX > 100 µM | SK-MEL-28 > 100 µM | LOX IMVI > 100 µM | SF-295 > 100 µM | UACC-257 22.1 µM | HOP-62 > 100 µM | SNB-19 > 100 µM | SK-MEL-2 > 100 µM | NCI-H522 > 100 µM | CAKI-1 > 100 µM

O=Nc1c(-c2c(O)[nH]c3ccc(I)cc23)[nH]c2ccccc12
inactive: HL-60 2.61 µM | HCC 2998 2.31 µM | RPMI-8226 1.88 µM | EKVX 2.96 µM | CCRF-CEM 2.08 µM | SK-MEL-28 4.32 µM | LOX IMVI 2.45 µM | SF-295 6.28 µM | UACC-257 > 31.5 µM | HCT-116 3.01 µM | SNB-19 > 29.7 µM | SK-MEL-2 1.99 µM | NCI-H522 2.82 µM | CAKI-1 2.45 µM | OVCAR-3 5.35 µM

C=C(N=[N+]=[N-])c1cn(C2CC(O)C(CO)O2)c(=O)[nH]c1=O (stereo not given)
inactive: HL-60 > 100 µM | HCC 2998 > 100 µM | RPMI-8226 > 100 µM | EKVX > 100 µM | K562 > 100 µM | CCRF-CEM > 100 µM | SK-MEL-28 > 100 µM | LOX IMVI > 100 µM | SF-295 > 100 µM | HCT-116 > 100 µM | HOP-62 > 100 µM | SNB-19 > 100 µM | MOLT-4 > 100 µM | SK-MEL-2 > 100 µM | NCI-H522 > 100 µM | CAKI-1 > 100 µM | OVCAR-3 > 100 µM

O=C(O)[C@@H](NS(=O)(=O)c1ccc(F)cc1)c1ccccc1
inactive: HCC 2998 > 100 µM | RPMI-8226 > 100 µM | EKVX > 100 µM | K562 > 100 µM | CCRF-CEM > 100 µM | SK-MEL-28 > 100 µM | LOX IMVI > 100 µM | SF-295 > 100 µM | UACC-257 > 100 µM | HCT-116 > 100 µM | HOP-62 > 100 µM | SNB-19 > 100 µM | MOLT-4 > 100 µM | SK-MEL-2 > 100 µM | NCI-H522 > 100 µM | CAKI-1 > 100 µM | OVCAR-3 > 100 µM

Cc1cc(-c2ccc(C(=O)C(Cl)(Cl)Cl)[nH]2)on1
inactive: HL-60 21.1 µM | A498 41.3 µM | RPMI-8226 8.51 µM | EKVX 35.1 µM | K562 18.3 µM | CCRF-CEM 27.2 µM | SK-MEL-28 31.4 µM | LOX IMVI 24.9 µM | SF-295 33.3 µM | UACC-257 42.1 µM | HCT-116 18 µM | HOP-62 11.4 µM | SNB-19 40.8 µM | MOLT-4 2.95 µM | SK-MEL-2 23.9 µM | NCI-H522 21.2 µM | CAKI-1 18.1 µM | OVCAR-3 25.1 µM
